Values of other authors in patent US20250375409A1, “Treatment of REM Behavior Disorder” (Vanda Pharmaceuticals Inc., priority 2024, published 2025).

Key:
[1] = following an oral dose; large first pass effect

mean systemic availability [1]: less than 2%
Structure (SMILES): CCC(=O)NCC[C@@H]1CCc2ccc3c(c21)CCO3 [ramelteon]
RBD outcome in open label trial (Esaki et al., 12 patients with idiopathic RBD, 8 mg given 30 minutes before bedtime): trend towards improvement
RBD symptoms, including the RBD severity scale (RBDSS) (Nomura et al. 2013, 8 mg, two patients with RBD in association with Parkinsonian syndromes): improvement of their RBD symptoms
RBD outcome in patients with Parkinson's disease (patients with Parkinson's disease, with or without RBD, after treatment): statistically significant RBD improvement
